PMC7976169 (Antiviral research, 2020)
pEC50: −log10 of the molar value. Where two headings read alike, the source gives them in different places. One block for each compound: values may come before it.

Columns and labels:
Uninfected Vero cells = assay type: in vitro ADME
HSV = details: cited from earlier work
[1] = system: HSV-1 KOS1.1-infected Vero cells; assay: Biosynthesis of nucleoside analog triphosphate in HSV-infected cells; assay type: in vitro ADME
HCMV = details: cited from earlier work
[2] = system: HCMV Towne-infected HFF cells; assay: Biosynthesis of nucleoside analog triphosphate in HCMV-infected cells; assay type: in vitro ADME; details: for Other metabolites detected: five times the EC50
Uninfected HFF cells = assay: Triphosphate formation in uninfected HFF cells; assay type: in vitro ADME
[3] = in vivo; cited from earlier work
[4] = read-out: EC50 against HCMV, ref Zhou et al., 2004
[5] = read-out: EC50 vs HCMV, ref Qiu et al., 1998

Levels of phosphates in uninfected Vero cells (Uninfected Vero cells): no measurable level
Compound: Nc1nc2c(ncn2COCCO)c(=O)[nH]1 [ACV, acyclovir]
pEC50 (HSV; reported EC50 of ACV, ref Furman et al., 1981): 6.00

Compound: Nc1nc2c(ncn2COCCOP(=O)(O)OP(=O)(O)OP(=O)(O)O)c(=O)[nH]1 [ACV-TP]
Triphosphate level at 8 hours ([1]; HSV-infected cells, 5.0 μM ACV, 8 hours): 3.8 ± 0.3 pmol/10^6 cells | Delay in production of triphosphate ([1]; HSV-infected cells, delay due to lack of HSV-TK early after infection): ~2 h

Compound: Nc1nc2c(ncn2/C=C2/CC2(CO)CO)c(=O)[nH]1 [FCV, Filociclovir]
pEC50 (HCMV; [4]): 6.34 | Fold greater efficacy against HCMV compared to GCV (HCMV; ref Zhou et al., 2004): 10 fold

Other metabolites detected [2]: no other metabolites | Levels of phosphates in uninfected HFF cells (Uninfected HFF cells): no measurable levels
Compound: Nc1nc(O)c2ncn(COC(CO)CO)c2n1 [GCV, ganciclovir]
pEC50 (HCMV; [4]): 5.39 | pEC50 (HCMV; [5]): 5.13 | Incidence of neutropenia [3]: ~ 30 % of patients

Peak Triphosphate Level ([2]; […], maximum at 120 hours): 42.6 ± 3.7 pmol/10^6 cells
Compound: Nc1nc(O)c2ncn(COC(CO)COP(=O)(O)OP(=O)(O)OP(=O)(O)O)c2n1 (stereo not drawn) [GCV-TP]

Compound: CCCCOc1nc(N)nc2c1ncn2C=C1CC1(CO)CO [MBX-2168]
Other metabolites detected [2]: no other metabolites | Other metabolites detected ([1]; HSV-infected Vero cells, five times the EC50): no other metabolites | pEC50 (HCMV; read-out: EC50 HCMV, ref Prichard et al., 2013): 6.10 | pEC50 (HSV; read-out: EC50 HSV, ref Prichard et al., 2013): 5.17

Compound: Nc1ccn(C[C@@H](CO)OCP(=O)(O)O)c(=O)n1 [cidofovir]
Incidence rate of nephrotoxicity [3]: ~ 50%

Compound: O=C(O)P(=O)(O)O [foscarnet]
Incidence rate of nephrotoxicity [3]: ~ 50%

Other metabolites detected [2]: no other metabolites | Levels of phosphates in uninfected HFF cells (Uninfected HFF cells): no measurable levels
Compound: Nc1nc2c(ncn2/C=C2/CC2CO)c(=O)[nH]1 (stereo not drawn) [synguanol]
pEC50 (HCMV; [5]): 5.68
